Source: patent publication US4681872A (priority 1985, dated 1987)
Converted amounts (≈) assume the structure as drawn. Read-outs that look alike come from different tables or passages of the source.

How the values were obtained:
[1] = test system: Strep. bovis A5169; assay: antimicrobial spectrum, agar dilution MIC; format: cell-based; details: BHI agar, 35°-37° C., 20-24 hours
[2] = test system: Strep. pyogenes EES61; assay: antimicrobial spectrum, agar dilution MIC; format: cell-based; details: BHI agar, 35°-37° C., 20-24 hours
[3] = test system: Staph. aureus NCTC 10649; assay: antimicrobial spectrum, agar dilution MIC; format: cell-based; details: 35°-37° C., 20-24 hours
[4] = test system: Staph. aureus CYR 1150; assay: antimicrobial spectrum, agar dilution MIC; format: cell-based; details: 35°-37° C., 20-24 hours
[5] = test system: Staph. epidermidis CMX 728; assay: antimicrobial spectrum, agar dilution MIC; format: cell-based; details: 35°-37° C., 20-24 hours
[6] = test system: Staph. epidermidis GYR 1151; assay: antimicrobial spectrum, agar dilution MIC; format: cell-based; details: 35°-37° C., 20-24 hours
[7] = test system: Enterococcus GYR 1166; assay: microbe, parasite or virus in culture; format: cell-based
[8] = test system: Strep. pyogenes C203; assay: antimicrobial spectrum, agar dilution MIC; format: cell-based; details: BHI agar, 35°-37° C., 20-24 hours
[9] = test system: Bact. fragilis 105; assay: antimicrobial spectrum, agar dilution MIC; format: cell-based; details: BHI agar, 35°-37° C., 20-24 hours
[10] = test system: Bact. fragilis SFM2975-7; assay: antimicrobial spectrum, agar dilution MIC; format: cell-based; details: 35°-37° C., 20-24 hours
[11] = test system: Bact. melaninogenicus ATCC 15930; assay: antimicrobial spectrum, agar dilution MIC; format: cell-based; details: 35°-37° C., 20-24 hours
[12] = test system: Cl. perfringens 104; assay: microbe, parasite or virus in culture; format: cell-based
[13] = test system: Cl. perfringens 788; assay: microbe, parasite or virus in culture; format: cell-based
[14] = test system: Pep. magnus ATCC 29328; assay: antimicrobial spectrum, agar dilution MIC; format: cell-based; details: 35°-37° C., 20-24 hours
[15] = test system: Staph. aureus ATCC 6538P; assay: antimicrobial spectrum, agar dilution MIC
[16] = test system: Staph. aureus CMX 686B; assay: antimicrobial spectrum, agar dilution MIC
[17] = test system: Staph. epidermidis 3519; assay: antimicrobial spectrum, agar dilution MIC
[18] = test system: E. coli KNK 437; assay: antimicrobial spectrum, agar dilution MIC
[19] = test system: Acinetobacter SP CMX 669; assay: antimicrobial spectrum, agar dilution MIC
[20] = test system: Staph. epidermidis CMX 729h; assay: antimicrobial spectrum, agar dilution MIC
[21] = test system: Staph. epidermidis CMX 724G; assay: antimicrobial spectrum, agar dilution MIC
[22] = test system: Enterococcus A-5168; assay: antimicrobial spectrum, agar dilution MIC
[23] = test system: Enterococcus GYR 1167; assay: antimicrobial spectrum, agar dilution MIC
[24] = test system: Strep. faecalis CMX 663F; assay: antimicrobial spectrum, agar dilution MIC
[25] = test system: Bact. fragilis SFM2906A; assay: antimicrobial spectrum, agar dilution MIC
[26] = test system: Bact. fragilis SFM2929-1; assay: antimicrobial spectrum, agar dilution MIC
[27] = test system: Bact. thetaiotamicron ATCC 29741; assay: antimicrobial spectrum, agar dilution MIC
[28] = test system: Bact. SP SFM2975-2; assay: antimicrobial spectrum, agar dilution MIC
[29] = test system: Fusobacterium SP GS-10; assay: antimicrobial spectrum, agar dilution MIC
[30] = test system: Cl. difficile ATCC 9689; assay: antimicrobial spectrum, agar dilution MIC
[31] = test system: Peptostrep. SP TB-11; assay: antimicrobial spectrum, agar dilution MIC
[32] = test system: Peptostrep. micros ATCC 33270; assay: antimicrobial spectrum, agar dilution MIC
[33] = test system: Veillonella parvula ATCC 10790; assay: antimicrobial spectrum, agar dilution MIC
[34] = Streptococcus pyogenes, read-out: MIC

## CCC1OC(=O)C(C)C(OC2CC(C)(OC)CC(C)O2)C(C)C(OC2OC(C)CC(N(C)C)C2O)C(C)(O)CC(C)C(=O)C(C)C2OC(=O)OC12C (stereo not drawn) [4"-deoxyerythromycin A 11,12-carbonate]
[1]
  MIC: .005 µg/mL (≈ 0.00672 µM)
[2]
  MIC: .01 µg/mL (≈ 0.0134 µM)
[3]; BHI agar
  MIC: .06 µg/mL (≈ 0.0807 µM)
[4]; BHI agar
  MIC: .03 µg/mL (≈ 0.0403 µM)
[5]; BHI agar
  MIC: .03 µg/mL (≈ 0.0403 µM)
[6]; BHI agar
  MIC: .06 µg/mL (≈ 0.0807 µM)
[7]; Enterococcus GYR 1166, BHI agar, 35°-37° C., 20-24 hours
  MIC: .12 µg/mL (≈ 0.161 µM)
[8]
  MIC: .004 µg/mL (≈ 0.00538 µM)
[9]
  MIC: .2 µg/mL (≈ 0.269 µM)
[10]; BHI agar
  MIC: .8 µg/mL (≈ 1.08 µM)
[11]; BHI agar
  MIC: .1 µg/mL (≈ 0.134 µM)
[12]; Cl. perfringens 104, BHI agar, 35°-37° C., 20-24 hours
  MIC: .4 µg/mL (≈ 0.538 µM)
[13]; Cl. perfringens 788, BHI agar, 35°-37° C., 20-24 hours
  MIC: .4 µg/mL (≈ 0.538 µM)
[14]; BHI agar
  MIC: .2 µg/mL (≈ 0.269 µM)
[15]; Staph. aureus ATCC 6538P, BHI agar, 35°-37° C., 20-24 hours
  MIC: .1 µg/mL (≈ 0.134 µM)
[16]; Staph. aureus CMX 686B, BHI agar, 35°-37° C., 20-24 hours
  MIC: .1 µg/mL (≈ 0.134 µM)
[17]; Staph. epidermidis 3519, BHI agar, 35°-37° C., 20-24 hours
  MIC: .1 µg/mL (≈ 0.134 µM)
[18]; E. coli KNK 437, BHI agar, 35°-37° C., 20-24 hours
  MIC: 25 µg/mL (≈ 33.6 µM)
[19]; Acinetobacter SP CMX 669, BHI agar, 35°-37° C., 20-24 hours
  MIC: 6.2 µg/mL (≈ 8.33 µM)
[20]; Staph. epidermidis CMX 729h, BHI agar, 35°-37° C., 20-24 hours
  MIC: 128 µg/mL (≈ 172 µM)
[21]; Staph. epidermidis CMX 724G, BHI agar, 35°-37° C., 20-24 hours
  MIC: 128 µg/mL (≈ 172 µM)
[22]; Enterococcus A-5168, BHI agar, 35°-37° C., 20-24 hours
  MIC: 128 µg/mL (≈ 172 µM)
[23]; Enterococcus GYR 1167, BHI agar, 35°-37° C., 20-24 hours
  MIC: .5 µg/mL (≈ 0.672 µM)
[24]; Strep. faecalis CMX 663F, BHI agar, 35°-37° C., 20-24 hours
  MIC: 2 µg/mL (≈ 2.69 µM)
[25]; Bact. fragilis SFM2906A, BHI agar, 35°-37° C., 20-24 hours
  MIC: .8 µg/mL (≈ 1.08 µM)
[26]; Bact. fragilis SFM2929-1, BHI agar, 35°-37° C., 20-24 hours
  MIC: 1.6 µg/mL (≈ 2.15 µM)
[27]; Bact. thetaiotamicron ATCC 29741, BHI agar, 35°-37° C., 20-24 hours
  MIC: 1.6 µg/mL (≈ 2.15 µM)
[28]; Bact. SP SFM2975-2, BHI agar, 35°-37° C., 20-24 hours
  MIC: .8 µg/mL (≈ 1.08 µM)
[29]; Fusobacterium SP GS-10, BHI agar, 35°-37° C., 20-24 hours
  MIC: 25 µg/mL (≈ 33.6 µM)
[30]; Cl. difficile ATCC 9689, BHI agar, 35°-37° C., 20-24 hours
  MIC: .4 µg/mL (≈ 0.538 µM)
[31]; Peptostrep. SP TB-11, BHI agar, 35°-37° C., 20-24 hours
  MIC: .8 µg/mL (≈ 1.08 µM)
[32]; Peptostrep. micros ATCC 33270, BHI agar, 35°-37° C., 20-24 hours
  MIC: .05 µg/mL (≈ 0.0672 µM)
[33]; Veillonella parvula ATCC 10790, BHI agar, 35°-37° C., 20-24 hours
  MIC: 3.1 µg/mL (≈ 4.17 µM)

## CC[C@H]1OC(=O)[C@H](C)[C@@H](O[C@H]2C[C@@](C)(OC)[C@@H](O)[C@H](C)O2)[C@H](C)[C@@H](O[C@@H]2O[C@H](C)C[C@H](N(C)C)[C@H]2O)[C@](C)(O)C[C@@H](C)C(=O)[C@H](C)[C@@H](O)[C@]1(C)O [Erythromycin A, reference compound]
[1]; Streptococcus equinus, read-out: MIC
  MIC: 0.01 µg/mL (≈ 0.0136 µM)
[2]; [34]
  MIC: 0.01 µg/mL (≈ 0.0136 µM)
[3]; Staphylococcus aureus, NCTC10649, BHI agar, read-out: MIC
  MIC: 0.12 µg/mL (≈ 0.164 µM)
[4]; Staphylococcus aureus, CYR1150, BHI agar, read-out: MIC
  MIC: 0.12 µg/mL (≈ 0.164 µM)
[5]; Staphylococcus epidermidis, CMX728, BHI agar, read-out: MIC
  MIC: 0.06 µg/mL (≈ 0.0818 µM)
[6]; Staphylococcus epidermidis, GYR1151, BHI agar, read-out: MIC
  MIC: 0.06 µg/mL (≈ 0.0818 µM)
[7]; Enterococcus, GYR1166
  MIC: 1 µg/mL (≈ 1.36 µM)
[8]; [34]
  MIC: 0.004 µg/mL (≈ 0.00545 µM)
[9]; Bacteroides fragilis, read-out: MIC
  MIC: 0.4 µg/mL (≈ 0.545 µM)
[10]; Bacteroides fragilis, SFM29757, BHI agar, read-out: MIC
  MIC: 6.3 µg/mL (≈ 8.58 µM)
[11]; Prevotella intermedia, ATCC15930, BHI agar, read-out: MIC
  MIC: 0.4 µg/mL (≈ 0.545 µM)
[12]; Clostridium perfringens, 104
  MIC: 1.6 µg/mL (≈ 2.18 µM)
[13]; Clostridium perfringens, 788
  MIC: 1.6 µg/mL (≈ 2.18 µM)
[14]; Finegoldia magna, ATCC29328, BHI agar, read-out: MIC
  MIC: 0.4 µg/mL (≈ 0.545 µM)
[15]; Staphylococcus aureus, ATCC6538P
  MIC: 0.39 µg/mL (≈ 0.531 µM)
[16]; Staphylococcus aureus, CMX686B
  MIC: 0.39 µg/mL (≈ 0.531 µM)
[17]; Staphylococcus epidermidis, 3519
  MIC: 0.39 µg/mL (≈ 0.531 µM)
[18]; Escherichia coli, KNK437
  MIC: 100 µg/mL (≈ 136 µM)
[19]; Acinetobacter, SPCMX669
  MIC: 12.5 µg/mL (≈ 17 µM)
[20]; Staphylococcus epidermidis, CMX729H
  MIC: 128 µg/mL (≈ 174 µM)
[21]; Staphylococcus epidermidis, CMX724G
  MIC: 128 µg/mL (≈ 174 µM)
[22]; Enterococcus, A5168
  MIC: 128 µg/mL (≈ 174 µM)
[23]; Enterococcus, GYR1167
  MIC: 2 µg/mL (≈ 2.73 µM)
[24]; Enterococcus faecalis, CMX663F
  MIC: 16 µg/mL (≈ 21.8 µM)
[25]; Bacteroides fragilis, SFM2906A
  MIC: 3.1 µg/mL (≈ 4.22 µM)
[26]; Bacteroides fragilis, SFM29291
  MIC: 3.1 µg/mL (≈ 4.22 µM)
[27]
  MIC: 3.1 µg/mL (≈ 4.22 µM)
[28]
  MIC: 1.6 µg/mL (≈ 2.18 µM)
[29]; Fusobacterium, SPGS10
  MIC: 50 µg/mL (≈ 68.1 µM)
[30]; Clostridioides difficile, ATCC9689
  MIC: 0.4 µg/mL (≈ 0.545 µM)
[31]
  MIC: 3.1 µg/mL (≈ 4.22 µM)
[32]
  MIC: 0.1 µg/mL (≈ 0.136 µM)
[33]; Veillonella parvula, ATCC10790
  MIC: 12.5 µg/mL (≈ 17 µM)
